Measured values reported in ChEMBL document CHEMBL5653631, “A Potent and Selective ULK1 Inhibitor Suppresses Autophagy and Sensitizes Cancer Cells to Nutrient Stress” (iScience, 2018).

What was measured:
[1] = molecular target: STE20-like serine/threonine-protein kinase (Homo sapiens) (UniProt Q9H2G2); experiment: Inhibition of human recombinant SLK at 40 nM in presence of ATP by radiometric assay relative to control
[2] = molecular target: Mitogen-activated protein kinase 8 (Homo sapiens) (UniProt P45983); experiment: Inhibition of human recombinant JNK1 at 15 nM in presence of ATP by radiometric assay relative to control
[3] = molecular target: Mitogen-activated protein kinase kinase kinase kinase 1 (Homo sapiens) (UniProt Q92918); experiment: Inhibition of human recombinant HPK1 at 15 nM in presence of ATP by radiometric assay relative to control
[4] = molecular target: T1, Tyrosine-protein kinase TXK (Homo sapiens) (UniProt P42681); experiment: Inhibition of human recombinant TXK at 15 nM related to control ULK1
T1 sequence (whole entry): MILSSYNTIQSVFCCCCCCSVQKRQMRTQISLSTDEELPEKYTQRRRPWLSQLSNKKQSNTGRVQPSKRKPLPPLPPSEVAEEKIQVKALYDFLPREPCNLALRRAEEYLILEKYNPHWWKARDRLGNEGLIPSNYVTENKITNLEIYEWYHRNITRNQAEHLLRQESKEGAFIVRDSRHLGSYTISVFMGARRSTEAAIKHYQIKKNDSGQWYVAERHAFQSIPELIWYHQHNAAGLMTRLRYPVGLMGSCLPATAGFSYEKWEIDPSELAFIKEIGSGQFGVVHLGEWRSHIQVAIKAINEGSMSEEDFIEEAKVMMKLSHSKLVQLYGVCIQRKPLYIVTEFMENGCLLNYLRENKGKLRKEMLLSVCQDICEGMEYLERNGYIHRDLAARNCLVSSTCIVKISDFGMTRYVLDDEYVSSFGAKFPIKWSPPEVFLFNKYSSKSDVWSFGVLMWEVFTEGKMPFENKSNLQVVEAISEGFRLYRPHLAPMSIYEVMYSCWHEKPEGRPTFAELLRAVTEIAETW

[5] = molecular target: T2, Serine/threonine-protein kinase tousled-like 1 (Homo sapiens) (UniProt Q9UKI8); experiment: Inhibition of human recombinant TLK1 at 15 nM related to control ULK1
T2 sequence (whole entry): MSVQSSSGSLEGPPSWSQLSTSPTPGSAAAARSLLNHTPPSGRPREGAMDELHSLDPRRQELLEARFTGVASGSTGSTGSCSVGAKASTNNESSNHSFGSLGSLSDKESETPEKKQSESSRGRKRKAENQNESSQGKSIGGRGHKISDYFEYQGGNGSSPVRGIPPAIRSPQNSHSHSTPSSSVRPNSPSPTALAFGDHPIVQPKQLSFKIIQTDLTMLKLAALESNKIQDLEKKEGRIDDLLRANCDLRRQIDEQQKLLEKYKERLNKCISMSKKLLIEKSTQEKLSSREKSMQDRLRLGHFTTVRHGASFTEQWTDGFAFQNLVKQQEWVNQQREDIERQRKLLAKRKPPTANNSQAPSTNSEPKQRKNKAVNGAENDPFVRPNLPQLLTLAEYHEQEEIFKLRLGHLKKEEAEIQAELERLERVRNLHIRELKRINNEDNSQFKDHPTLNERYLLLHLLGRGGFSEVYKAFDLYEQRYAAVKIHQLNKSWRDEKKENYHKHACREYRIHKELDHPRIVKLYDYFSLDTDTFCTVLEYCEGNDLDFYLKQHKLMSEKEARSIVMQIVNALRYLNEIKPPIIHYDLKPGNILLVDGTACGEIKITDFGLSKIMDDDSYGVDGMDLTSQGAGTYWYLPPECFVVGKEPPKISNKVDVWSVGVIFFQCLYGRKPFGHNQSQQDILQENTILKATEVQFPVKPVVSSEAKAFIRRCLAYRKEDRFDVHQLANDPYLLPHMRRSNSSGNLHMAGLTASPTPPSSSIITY

[6] = molecular target: SRSF protein kinase 3 (Homo sapiens) (UniProt Q9UPE1); experiment: Inhibition of human recombinant MSSK1 at 500 nM related to control ULK1
[7] = molecular target: T3, Serine/threonine-protein kinase TAO2 (Homo sapiens) (UniProt Q9UL54); experiment: Inhibition of human recombinant TAO2 at 500 nM related to control ULK1
T3 sequence (whole entry): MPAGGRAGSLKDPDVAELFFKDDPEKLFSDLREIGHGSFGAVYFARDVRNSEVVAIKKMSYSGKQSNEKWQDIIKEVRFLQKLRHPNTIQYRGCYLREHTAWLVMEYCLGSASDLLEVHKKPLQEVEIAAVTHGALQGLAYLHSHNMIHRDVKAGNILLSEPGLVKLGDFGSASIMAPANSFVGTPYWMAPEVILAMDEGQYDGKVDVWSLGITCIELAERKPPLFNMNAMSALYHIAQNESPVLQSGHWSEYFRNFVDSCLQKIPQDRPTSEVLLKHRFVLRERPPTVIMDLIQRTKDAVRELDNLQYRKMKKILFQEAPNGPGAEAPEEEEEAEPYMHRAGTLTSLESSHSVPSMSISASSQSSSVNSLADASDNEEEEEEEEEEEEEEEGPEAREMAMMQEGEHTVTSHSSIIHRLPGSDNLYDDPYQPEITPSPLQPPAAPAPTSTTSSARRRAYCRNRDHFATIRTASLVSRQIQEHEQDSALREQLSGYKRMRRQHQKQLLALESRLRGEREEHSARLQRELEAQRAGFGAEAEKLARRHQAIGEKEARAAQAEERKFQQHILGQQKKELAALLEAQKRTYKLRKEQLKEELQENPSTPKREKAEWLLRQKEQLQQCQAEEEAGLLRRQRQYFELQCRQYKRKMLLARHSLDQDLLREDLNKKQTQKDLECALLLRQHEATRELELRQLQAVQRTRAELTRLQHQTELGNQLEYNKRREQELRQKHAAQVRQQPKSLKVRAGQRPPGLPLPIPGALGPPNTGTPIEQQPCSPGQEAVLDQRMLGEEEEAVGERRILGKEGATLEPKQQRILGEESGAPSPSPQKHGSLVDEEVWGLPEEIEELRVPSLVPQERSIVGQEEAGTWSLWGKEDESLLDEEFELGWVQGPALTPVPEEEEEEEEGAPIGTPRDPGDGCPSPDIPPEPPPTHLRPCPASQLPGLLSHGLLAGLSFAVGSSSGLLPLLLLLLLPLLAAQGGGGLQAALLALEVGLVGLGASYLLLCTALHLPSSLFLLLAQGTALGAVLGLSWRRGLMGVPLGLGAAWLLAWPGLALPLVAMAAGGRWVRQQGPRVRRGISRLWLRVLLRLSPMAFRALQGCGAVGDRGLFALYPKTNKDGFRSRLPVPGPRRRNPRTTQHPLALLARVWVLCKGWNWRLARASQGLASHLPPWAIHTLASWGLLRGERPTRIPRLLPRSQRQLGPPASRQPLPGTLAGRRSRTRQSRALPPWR

Sequence of Mitogen-activated protein kinase kinase kinase kinase 1 (Homo sapiens) (Q92918 whole entry, looked up): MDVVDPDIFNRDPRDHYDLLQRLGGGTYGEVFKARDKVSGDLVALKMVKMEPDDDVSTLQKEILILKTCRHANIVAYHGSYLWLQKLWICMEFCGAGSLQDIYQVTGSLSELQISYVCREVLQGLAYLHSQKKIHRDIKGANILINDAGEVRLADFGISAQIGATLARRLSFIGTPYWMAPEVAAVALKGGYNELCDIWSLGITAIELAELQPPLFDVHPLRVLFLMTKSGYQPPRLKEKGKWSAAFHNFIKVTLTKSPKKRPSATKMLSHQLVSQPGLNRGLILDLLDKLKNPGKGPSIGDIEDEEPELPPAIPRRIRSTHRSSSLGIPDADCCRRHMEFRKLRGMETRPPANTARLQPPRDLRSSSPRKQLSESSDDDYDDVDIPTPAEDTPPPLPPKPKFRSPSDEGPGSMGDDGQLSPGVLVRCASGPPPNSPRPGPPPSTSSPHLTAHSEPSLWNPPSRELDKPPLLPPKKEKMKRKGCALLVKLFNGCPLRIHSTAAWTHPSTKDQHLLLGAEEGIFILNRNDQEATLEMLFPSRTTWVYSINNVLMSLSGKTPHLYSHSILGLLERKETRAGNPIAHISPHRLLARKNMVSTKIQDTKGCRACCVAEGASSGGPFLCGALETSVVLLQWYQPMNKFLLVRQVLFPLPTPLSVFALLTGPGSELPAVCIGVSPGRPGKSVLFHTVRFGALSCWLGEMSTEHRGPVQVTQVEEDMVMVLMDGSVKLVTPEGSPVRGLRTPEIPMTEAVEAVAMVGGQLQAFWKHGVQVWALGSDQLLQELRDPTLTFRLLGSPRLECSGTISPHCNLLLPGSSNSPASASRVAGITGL
Sequence of SRSF protein kinase 3 (Homo sapiens) (Q9UPE1 whole entry): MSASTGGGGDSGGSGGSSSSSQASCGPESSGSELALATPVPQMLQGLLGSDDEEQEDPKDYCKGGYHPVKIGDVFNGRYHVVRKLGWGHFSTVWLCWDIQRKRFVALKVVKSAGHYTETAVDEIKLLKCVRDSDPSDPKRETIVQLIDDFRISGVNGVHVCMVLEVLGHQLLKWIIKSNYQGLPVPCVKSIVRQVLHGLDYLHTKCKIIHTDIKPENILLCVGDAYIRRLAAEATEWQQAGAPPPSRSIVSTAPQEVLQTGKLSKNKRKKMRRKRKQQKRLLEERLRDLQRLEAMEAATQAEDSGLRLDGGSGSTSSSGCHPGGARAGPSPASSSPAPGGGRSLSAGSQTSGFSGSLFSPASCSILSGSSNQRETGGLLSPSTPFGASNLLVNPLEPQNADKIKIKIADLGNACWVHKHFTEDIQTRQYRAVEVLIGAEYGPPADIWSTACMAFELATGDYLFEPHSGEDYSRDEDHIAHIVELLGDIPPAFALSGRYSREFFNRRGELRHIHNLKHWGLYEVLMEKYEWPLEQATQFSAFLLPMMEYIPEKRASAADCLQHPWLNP
Sequence of STE20-like serine/threonine-protein kinase (Homo sapiens) (Q9H2G2 whole entry, looked up): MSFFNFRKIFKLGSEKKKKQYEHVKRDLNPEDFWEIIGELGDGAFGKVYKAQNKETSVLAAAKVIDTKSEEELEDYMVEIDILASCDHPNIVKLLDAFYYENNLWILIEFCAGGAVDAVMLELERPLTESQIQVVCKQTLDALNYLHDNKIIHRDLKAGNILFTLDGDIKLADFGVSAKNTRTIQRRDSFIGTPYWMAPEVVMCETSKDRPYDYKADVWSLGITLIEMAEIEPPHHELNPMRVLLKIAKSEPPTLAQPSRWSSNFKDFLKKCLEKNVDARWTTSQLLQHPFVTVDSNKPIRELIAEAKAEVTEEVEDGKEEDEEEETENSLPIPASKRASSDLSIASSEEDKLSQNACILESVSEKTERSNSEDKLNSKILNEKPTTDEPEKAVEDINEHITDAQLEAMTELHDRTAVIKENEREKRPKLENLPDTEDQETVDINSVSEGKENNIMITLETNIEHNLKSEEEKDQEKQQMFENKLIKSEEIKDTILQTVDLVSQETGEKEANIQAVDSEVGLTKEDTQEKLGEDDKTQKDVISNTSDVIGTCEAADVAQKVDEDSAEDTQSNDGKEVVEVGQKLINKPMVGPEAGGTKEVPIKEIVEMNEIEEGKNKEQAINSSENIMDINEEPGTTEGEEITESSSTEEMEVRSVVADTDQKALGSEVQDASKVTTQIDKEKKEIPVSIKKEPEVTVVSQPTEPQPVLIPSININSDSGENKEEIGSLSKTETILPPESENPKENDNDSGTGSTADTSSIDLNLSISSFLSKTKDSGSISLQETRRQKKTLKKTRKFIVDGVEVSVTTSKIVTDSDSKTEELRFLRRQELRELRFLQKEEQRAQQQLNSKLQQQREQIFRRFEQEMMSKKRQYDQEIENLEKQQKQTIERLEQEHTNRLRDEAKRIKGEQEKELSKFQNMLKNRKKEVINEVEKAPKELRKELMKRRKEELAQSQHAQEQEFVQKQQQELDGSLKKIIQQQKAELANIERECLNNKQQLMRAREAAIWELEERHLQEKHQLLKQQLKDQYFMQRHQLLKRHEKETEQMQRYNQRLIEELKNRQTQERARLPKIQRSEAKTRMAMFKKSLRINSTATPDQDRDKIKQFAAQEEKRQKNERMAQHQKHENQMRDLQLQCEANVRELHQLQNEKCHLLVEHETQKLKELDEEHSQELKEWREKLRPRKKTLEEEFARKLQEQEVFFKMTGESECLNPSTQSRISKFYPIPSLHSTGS
Sequence of Mitogen-activated protein kinase 8 (Homo sapiens) (P45983 whole entry): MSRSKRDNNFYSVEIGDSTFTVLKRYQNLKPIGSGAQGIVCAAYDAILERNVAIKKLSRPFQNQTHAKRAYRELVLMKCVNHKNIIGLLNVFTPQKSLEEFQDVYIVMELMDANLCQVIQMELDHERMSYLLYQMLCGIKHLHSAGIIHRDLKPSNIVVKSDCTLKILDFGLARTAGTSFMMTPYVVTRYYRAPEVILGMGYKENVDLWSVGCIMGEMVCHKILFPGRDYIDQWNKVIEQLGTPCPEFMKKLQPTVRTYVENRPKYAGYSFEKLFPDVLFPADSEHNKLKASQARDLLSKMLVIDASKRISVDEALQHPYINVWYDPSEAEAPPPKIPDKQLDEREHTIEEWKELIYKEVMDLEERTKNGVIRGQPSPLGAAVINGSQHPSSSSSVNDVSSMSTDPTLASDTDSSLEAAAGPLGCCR

O=C(N[C@@H](C1CC1)C(F)(F)F)c1cc(-c2cnn3cc(-c4ccc(F)cc4)cnc23)cs1
inhibition [1]: 0%

CC(C)[C@H](NC(=O)c1cc(-c2cnn3cc(-c4ccc(OCCN5CCCCC5)cc4)cnc23)cs1)C(F)(F)F
inhibition [2]: 8%
inhibition [3]: 0%
fold change (FC) [4]: 0.67
fold change (FC) [5]: 0

CNC(=O)c1ccccc1Oc1nc(Nc2cc(OC)c(OC)c(OC)c2)ncc1Br
fold change (FC) [6]: 0.2
fold change (FC) [7]: 0
